Each structure is given as a SMILES string.

Data set [1] is described as follows: BC-1 (tea stain on cotton) bleaching. Particulars: pH 11.5, 1 g/L sodium percarbonate, 40° C., 30 min, Table 3. On the procedure: BC-1 (tea stain on cotton) bleaching experiments were carried similarly as described in WO2014/202954. All bleaching experiments were done in duplication.
BC-1 (tea stain on cotton) bleaching was assessed at pH 11.5 in an aqueous solution containing 1 g/L nonionic formulation (Lutensol A07), 0, 1 and 2 μM [Mn2(μ-O)2(μ-CH3COO)(Me4DTNE)]Cl2), 1 g/L sodium percarbonate at 40° C. for 30 min (reference test).
Similarly, the bleaching activity of granule 9 was assessed using the same protocol, except for dissolving granule 9 in demineralised water yielding the same concentrations of catalyst as used in the reference test.

The conditions of data set [2]: cited from earlier work.
Data set [3] is described as follows: Reference granulation: stability of catalyst/PVOH mixture in water and on fluidised bed drying. The data set is classed as physicochemical. As for the experimental part: Similar to the process described above for granules 1-7, an aqueous solution of [Mn2(μ-O)3(Me3TACN)2](PF6)2·H2O in water and PVOH were mixed together with the other components to make the granule (corn starch and CaSO4). As the solubility of [Mn2(μ-O)3(Me3TACN)2](PF6)2·H2O in water is relatively low (1.08 wt-% in water at 20° C.—see WO2006/125517), a large amount of water needed to be added to obtain a mixture that has enough of the [Mn2(μ-O)3(Me3TACN)2](PF6)2·H2O catalyst to yield a granule comprising 2 wt-% of [Mn2(μ-O)3(Me3TACN)2](PF6)2·H2O (this would equate to 1.85 L of the aqueous solution of [Mn2(μ-O)3(Me3TACN)2](PF6)2·H2O following the same amounts of chemicals as described in the examples above).
Second observation was that the mixture of the [Mn2(μ-O)3(Me3TACN)2](PF6)2·H2O and PVOH in water was not stable.

For `CC(=O)[O-].CN1CCN(C)CCN(CCN2CCN(C)CCN(C)CC2)CC1.[Cl-].[Cl-].[Mn+3].[Mn+4].[O-2].[O-2]` [[Mn2(μ-O)2(μ-CH3COO)(Me4DTNE)]Cl2], the figures for the “ΔR* BC-1 bleaching” value in data set [1] (1.0 μM catalyst) and in data set [1] (2.0 μM catalyst) were 25.2 (0.1) and 26.3 (0.1), respectively.

On to `CN1CCN(C)CCN(C)CC1.CN1CCN(C)CCN(C)CC1.F[P-](F)(F)(F)(F)F.F[P-](F)(F)(F)(F)F.O.[Mn+4].[Mn+4].[O-2].[O-2].[O-2]` [[Mn2(μ-O)3(Me3TACN)2](PF6)2·H2O, [Mn2(μ-O)3(Me3-TACN)2](PF6)2·H2O], for which, in data set [2] (at 20° C.), the water solubility is 10.8 mg/mL. Further, the solubility in water in data set [2] (in water at 20° C., see WO2006/125517) is 1.08 wt-%. For the same compound, the “appearance after fluidised bed drying (catalyst decomposition)” value in data set [3] (granulation from dilute aqueous solution with PVOH, corn starch, CaSO4) is “dark brown granules”. In data set [3] (room temperature), the “stability of mixture of catalyst and PVOH in water” value is “not stable”.

As to `CN1CCN(C)CCN(C)CC1.CN1CCN(C)CCN(C)CC1.O=S(=O)([O-])[O-].[Mn+4].[Mn+4].[O-2].[O-2].[O-2]` [MnTACNSO4, [Mn2(μ-O)3(Me3TACN)2]SO4], in data set [3] (room temperature), the “time the mixture of catalyst and PVOH in solution remained stable” value was “at least 4 days”.

Source of the values: patent publication US20230365899A1, “COMPOSITIONS COMPRISING BLEACHING CATALYST, MANUFACTURING PROCESS THEREOF, AND BLEACHING AND CLEANING AGENT COMPRISING SAME” (WEYLCHEM PERFORMANCE PRODUCTS GMBH, priority 2020, published 2023).
